Measured values from patent US20230404989A1, “GRK2 INHIBITION BY PAROXETINE AMELIORATES OSTEOARTHRITIS” (THE PENN STATE RESEARCH FOUNDATION, priority 2020, published 2023).

Legend:
human OA cartilage = assay: Ex vivo cultured human OA osteochondral plugs: IF staining and RT-qPCR; assay type: cell-based; conditions: paroxetine 5 μM or gallein 10 μM, 48 hrs
Excerpt: An Institutional Review Board-approved protocol was executed to collect discarded de-identified cartilage from patients. For the experiment described in FIG. 3A, we obtained acutely injured human cartilage (from patients undergoing arthroscopic surgery 4 weeks following meniscal injury, N=6) and OA cartilage (from patients undergoing arthroplasty, N=6). Normal controls were obtained from amputees' knees (N=6). Cartilage was fixed in formalin then processed and embedded in paraffin, 5-μm sections were used for immunofluorescence (IF) staining. For the experiment described in FIG. 7, OA osteochondral tissue was collected from patients undergoing total knee arthroplasty. Osteochondral plugs (8-mm diameter) were obtained and bone was flushed with saline solution to remove all bone marrow and blood cells. Plugs were then cultured overnight in low glucose DMEM at 5% CO2 and 37° C. The next morning plugs were treated with either vehicle phosphate buffer saline (PBS), paroxetine (5 μM), or gallein (10 μM), and the drug-containing culture medium was replenished after 24 hrs. After 48 hrs, plugs were fixed for 7 days in 10% neutral buffered formalin (NBF), decalcified for 2 weeks in 10% w/v EDTA, embedded in paraffin, and […] were cut and mounted for histological and IF staining. Alternatively, the cartilage was shaved from plugs and flash-frozen in liquid nitrogen for RNA extraction as described below. mRNA was isolated from human cartilage using the method we published recently, yielding RNA Integrity Number (RIN) values above 7.0 (53). cDNA was prepared using Iscript cDNA synthesis kit from Bio-rad following the manufacturer's protocol. cDNAs were qPCR amplified using TaqMan Gene Expression Assays, with GAPDH as the house keeping gene (ThermoFisher Scientific; described in Table 2) and the 7500 Fast Real-Time PCR System (Applied Biosystems). Paraffin sections were deparaffinized in three changes of xylene for five minutes each, rehydrated in ethanol (two changes of 100% ethanol, followed by two changes of 95% ethanol, followed by one change of 70% ethanol) and rinsed twice in deionized water. Antigen retrieval was performed for 30 minutes at 37° C. using 0.4% pepsin (Sigma P-7000) in 0.1M hydrochloric acid (HCl) and was followed by permeabilization for 30 minutes at room temperature using Triton X in tris buffered saline (TBS). Sections were then blocked for 1 hour at room temperature in 10% normal goat serum in 1×TBS. Tissue sections were incubated overnight at 4° C. with the rabbit anti-mouse primary antibody specific for the target protein (detailed in Table 1).

DMM mice [1] = assay: Micro-CT assessment of knee joint and subchondral bone in DMM mice; assay type: in vivo, mouse; conditions: daily ip week 8 to 12
Description: Drug treatment studies: In twelve-week old male wild type C57BL/6 mice that received DMM surgeries, vehicle (PBS), paroxetine (5 mg/kg/day), fluoxetine (5 mg/kg/day), gallein (10 mg/kg/day) or indomethacin (2.5 mg/kg/day) were administered daily by ip injection. Drug treatment was initiated 8 weeks following DMM to determine the role of GRK2 signaling in the progression of OA. Prior to histologic processing, harvested knee joints were evaluated via micro-CT using a Scanco vivaCT40 scanner with a 55 kVp source as we have previously described. Joints were scanned at a resolution of 10.5 μm. General 3-dimensional images were obtained with simple segmentation at a Scanco threshold of 260, which was determined on inspection of the first specimen. This translates to a linear attenuation coefficient of 2.080 cm-1. Knee analysis starts by locating the highest section of the tibial plateau and defining that as the center point. All bone is captured 100 slices in each direction from the center point. The patella and fibula, if present in that region, are excluded. The fabellae are considered part of the knee and are included. A threshold of 260 (2.080 cm′) is used to analyze bone volume and microarchitecture. Tibia subchondral analysis begins by starting at the knee and proceeding distally until the cortical shell is penetrated. All non-cortical bone is included, both solid and trabecular. Osteophytes were identified as protrusions and counted using cross-sectional images of the 3-dimensional stacks. Subchondral plate thickness was calculated by determining the number of cross-sections forming the subchondral plate and multiplying it by section thickness (C. Huesa, Annals of the rheumatic diseases, 75, 1989-1997 (2016)).

DMM mice [2] = assay: DMM mice treated with PTH, paroxetine or their combination: histology and histomorphometry (Example 1); assay type: in vivo, mouse; conditions: treatment week 8 to 12, PTH sc 40 μg/kg/day, paroxetine ip 5 mg/kg/day
Description: Methods: Destabilization of the medial meniscus (DMM) surgery was used to simulate clinical post-traumatic OA. First, we determined the role of GRK2 inhibition in PTH1R Gas-cAMP signaling: 12 week old male mice underwent sham or DMM surgery and were treated with either vehicle or the GRK2 inhibitor “paroxetine” (ip, 5 mg/kg/day), treatment was initiated at the time of surgery and continued daily until 8 weeks. Knees were harvested and articular cartilage was obtained for ex vivo analysis of Gas activity. In ex vivo culture, cartilage explants were treated with PTH as an agonist to stimulate PTH1R-Ga-cAMP signaling. Thirty minutes following PTH stimulation, cartilage tissue was homogenized and cAMP levels were measured. Then, we determined the role of GRK2 inhibition in recovering or even potentiating PTH1R signaling in OA cartilage: 12 week old male mice underwent sham or DMM surgery, and received treatment with vehicle, PTH (sc, 40 μg/kg/day) alone, the GRK2 inhibitor “paroxetine3” (ip, 5 mg/kg/day) alone, or their combination. Treatment was initiated at week 8 following DMM surgery, where OA is in progress, and continued until week 12 where mice were sacrificed. Knees were harvested, paraffin embedded, sectioned and stained with safranin-o and fast green for histological evaluation, OARSI scoring, and histomorphometric analysis. Results are expressed as mean values+s.e.m. with an N=5-8 mice per experimental group. Statistical analyses were performed using one ANVOA with P<0.05 representing statistical significance.

DMM mice [3] = assay: Response threshold to mechanical pain stimulus in DMM mice; assay type: in vivo, mouse; conditions: daily treatment week 8 to 12, measured 12 weeks following DMM
Excerpt: Paroxetine attenuates pain sensitivity of DMM mice. Response threshold to mechanical pain stimulus measured in sham mice and DMM mice 12 weeks following DMM. DMM mice received respective daily treatments from week 8 until week 12 following DMM: vehicle (V) or Paroxetine (Px). *P<0.05 & ***P<0.001.

DMM mice [4] = assay: Gait (stride length) in DMM mice; assay type: in vivo, mouse; conditions: daily treatment week 8 to 12, measured 12 weeks following DMM
Excerpt: Paroxetine normalizes changes in the gait of DMM mice. Stride length in centimeters measured for sham mice and DMM mice 12 weeks following DMM. DMM mice received respective daily treatments from week 8 until week 12 following DMM: vehicle (V) or Paroxetine (Px). **P<0.01 & ***P<0.001

| SMILES | ADAMTS5 mRNA expression (RT-qPCR) (human OA cartilage) | ADAMTS5 protein expression (IF staining) (human OA cartilage) | GRK2 mRNA expression (RT-qPCR) (human OA cartilage) | GRK2 protein expression (IF staining) (human OA cartilage) | MMP13 mRNA expression (RT-qPCR) (human OA cartilage) | MMP13 protein expression (IF staining) (human OA cartilage) | higher osteophyte number (DMM mice [1]) | higher subchondral bone mineral density (BMD) (DMM mice [1]) | higher subchondral bone volume density (BV/TV) (DMM mice [1]) | higher subchondral plate thickness (DMM mice [1]) | higher subchondral trabecular thickness (Tb.Th) (DMM mice [1]) | increased knee bone volume (BV) (DMM mice [1]) | increased knee total volume (TV) (DMM mice [1]) | chondrocyte number (DMM mice [2]) | number of matrix-producing (anabolic) chondrocytes (DMM mice [2]) | uncalcified cartilage area (DMM mice [2]) | pain sensitivity (response threshold to mechanical pain stimulus) (DMM mice [3]) | changes in the gait (stride length) (DMM mice [4]) |
| --- | --- | --- | --- | --- | --- | --- | --- | --- | --- | --- | --- | --- | --- | --- | --- | --- | --- | --- |
| O=C1OC2(c3ccccc31)c1ccc(O)c(O)c1Oc1c2ccc(O)c1O [gallein] | did not achieve statistical significance | attenuated | not affected | reduced | did not achieve statistical significance | attenuated | alleviated | alleviated | alleviated | alleviated | alleviated | ameliorated | ameliorated | – | – | – | – | – |
| Fc1ccc([C@@H]2CCNC[C@H]2COc2ccc3c(c2)OCO3)cc1 [paroxetine] | significantly inhibited | significantly inhibited | not affected | reduced | significantly inhibited | significantly inhibited | alleviated | alleviated | alleviated | alleviated | alleviated | ameliorated | ameliorated | increased | particular increase | increased | attenuates | normalizes |
